{
  "source": "ChEMBL document CHEMBL1134069",
  "about": "(Bioorg Med Chem Lett, 2001)",
  "key": {"[1]": {"biological_target": "T1, Deoxynucleoside kinase (Drosophila melanogaster, UniProt Q9XZT6)", "T1 sequence (Q9XZT6 whole entry)": "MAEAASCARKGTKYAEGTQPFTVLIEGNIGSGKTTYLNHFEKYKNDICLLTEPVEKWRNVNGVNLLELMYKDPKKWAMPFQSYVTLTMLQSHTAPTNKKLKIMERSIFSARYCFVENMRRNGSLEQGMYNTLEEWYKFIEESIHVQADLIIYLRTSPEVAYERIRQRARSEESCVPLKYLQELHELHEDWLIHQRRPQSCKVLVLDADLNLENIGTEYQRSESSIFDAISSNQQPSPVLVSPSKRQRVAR", "assay": "Inhibitory concentration against Drosophila melanogaster deoxyribonucleoside kinase (Dm-dNK)"}, "[2]": {"biological_target": "T2, Thymidine kinase (Human herpesvirus 1 (strain SC16) (HHV-1) (Human herpes simplex virus1), UniProt P06479)", "T2 sequence (P06479 whole entry)": "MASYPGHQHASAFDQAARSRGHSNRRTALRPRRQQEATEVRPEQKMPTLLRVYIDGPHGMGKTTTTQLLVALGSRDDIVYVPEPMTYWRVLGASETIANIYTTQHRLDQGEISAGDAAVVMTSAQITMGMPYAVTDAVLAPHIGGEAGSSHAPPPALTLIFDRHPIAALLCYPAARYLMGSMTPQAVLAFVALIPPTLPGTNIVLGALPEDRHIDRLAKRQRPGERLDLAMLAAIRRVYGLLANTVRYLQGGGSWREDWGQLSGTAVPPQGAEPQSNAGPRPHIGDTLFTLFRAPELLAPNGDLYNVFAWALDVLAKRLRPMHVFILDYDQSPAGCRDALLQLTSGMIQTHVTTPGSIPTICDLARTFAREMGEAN", "assay": "Inhibitory concentration against Herpes simplex virus type 1 thymidine kinase(HSV-1 TK)", "set-up": "species or system Herpes simplex virus (type 1 / strain SC16)"}, "[3]": {"biological_target": "T3, Thymidine kinase 2, mitochondrial (Homo sapiens, UniProt O00142)", "T3 sequence (O00142 whole entry)": "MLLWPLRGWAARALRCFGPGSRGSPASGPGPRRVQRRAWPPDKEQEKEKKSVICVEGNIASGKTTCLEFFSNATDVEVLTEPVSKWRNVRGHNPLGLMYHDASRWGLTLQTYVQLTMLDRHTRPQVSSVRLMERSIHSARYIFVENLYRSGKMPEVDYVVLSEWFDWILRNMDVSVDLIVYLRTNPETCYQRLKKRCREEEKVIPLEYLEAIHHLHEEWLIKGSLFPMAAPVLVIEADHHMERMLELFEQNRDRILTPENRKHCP", "assay": "Inhibitory concentration against mitochondrial thymidine kinase (TK-2)"}, "[4]": {"biological_target": "T4, Thymidine kinase (Varicella-zoster virus (strain Dumas) (HHV-3) (Human herpesvirus 3), UniProt P09250)", "T4 sequence (P09250 whole entry)": "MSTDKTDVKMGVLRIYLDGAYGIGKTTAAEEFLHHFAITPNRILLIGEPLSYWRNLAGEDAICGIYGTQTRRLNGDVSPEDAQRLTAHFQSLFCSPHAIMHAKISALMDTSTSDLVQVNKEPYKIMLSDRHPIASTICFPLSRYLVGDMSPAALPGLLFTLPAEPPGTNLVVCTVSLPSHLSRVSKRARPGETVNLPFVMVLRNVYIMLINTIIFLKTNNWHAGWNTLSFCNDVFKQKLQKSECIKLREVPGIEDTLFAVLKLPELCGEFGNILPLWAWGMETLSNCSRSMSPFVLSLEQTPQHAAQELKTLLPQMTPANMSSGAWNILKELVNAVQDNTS", "assay": "Inhibitory concentration against Varicella- zoster virus thymidine kinase(VZV TK)", "set-up": "species or system Human alphaherpesvirus 3"}, "[5]": {"biological_target": "T5, Thymidine kinase, cytosolic (Homo sapiens, UniProt P04183)", "T5 sequence (P04183 whole entry)": "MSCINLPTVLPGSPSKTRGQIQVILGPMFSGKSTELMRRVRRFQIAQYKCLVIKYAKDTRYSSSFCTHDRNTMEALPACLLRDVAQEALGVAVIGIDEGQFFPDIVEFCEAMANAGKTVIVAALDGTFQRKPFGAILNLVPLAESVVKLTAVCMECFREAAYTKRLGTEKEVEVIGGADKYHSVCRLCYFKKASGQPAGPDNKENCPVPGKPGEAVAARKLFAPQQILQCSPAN", "assay": "Inhibitory concentration against cytosolic thymidine kinase (TK-1)"}},
  "data": [
    {"smiles": "Cc1cn([C@@H]2O[C@H](CO)[C@@H](O)[C@@H]2O)c(=O)[nH]c1=O", "values": [
      {"measurement": "IC50", "setting": "[1]", "result": 65, "unit": "µM"},
      {"measurement": "IC50", "setting": "[2]", "result": 24, "unit": "µM"},
      {"measurement": "IC50", "setting": "[3]", "result": 285, "unit": "µM"},
      {"measurement": "IC50", "setting": "[4]", "result": 17, "unit": "µM"},
      {"measurement": "IC50", "setting": "[5]", "result": "> 1000", "unit": "µM"}
    ]},
    {"smiles": "CCCCCCCC(=O)O[C@H]1[C@H](O)[C@@H](CO)O[C@H]1n1cc(/C=C/Br)c(=O)[nH]c1=O", "values": [
      {"measurement": "IC50", "setting": "[1]", "result": 178, "unit": "µM"},
      {"measurement": "IC50", "setting": "[2]", "result": "> 1000", "unit": "µM"},
      {"measurement": "IC50", "setting": "[3]", "result": 6.3, "unit": "µM"},
      {"measurement": "IC50", "setting": "[4]", "result": 718, "unit": "µM"},
      {"measurement": "IC50", "setting": "[5]", "result": "> 1000", "unit": "µM"}
    ]},
    {"smiles": "CCCCCCCCO[C@H]1[C@H](O)[C@@H](CO)O[C@H]1n1ccc(N)nc1=O", "values": [
      {"measurement": "IC50", "setting": "[2]", "result": "> 1000", "unit": "µM"},
      {"measurement": "IC50", "setting": "[3]", "result": "> 1000", "unit": "µM"},
      {"measurement": "IC50", "setting": "[4]", "result": "> 1000", "unit": "µM"},
      {"measurement": "IC50", "setting": "[5]", "result": "> 1000", "unit": "µM"}
    ]},
    {"smiles": "Cc1cn([C@@H]2O[C@H](CO)[C@@H](O)[C@H]2OCc2ccccc2)c(=O)[nH]c1=O", "values": [
      {"measurement": "IC50", "setting": "[1]", "result": "> 1000", "unit": "µM"},
      {"measurement": "IC50", "setting": "[2]", "result": "> 1000", "unit": "µM"},
      {"measurement": "IC50", "setting": "[3]", "result": 801, "unit": "µM"},
      {"measurement": "IC50", "setting": "[4]", "result": "> 1000", "unit": "µM"},
      {"measurement": "IC50", "setting": "[5]", "result": "> 1000", "unit": "µM"}
    ]},
    {"smiles": "CCCCC(=O)O[C@H]1[C@H](O)[C@@H](CO)O[C@H]1n1cc(C)c(=O)[nH]c1=O", "values": [
      {"measurement": "IC50", "setting": "[1]", "result": "> 1000", "unit": "µM"},
      {"measurement": "IC50", "setting": "[2]", "result": "> 1000", "unit": "µM"},
      {"measurement": "IC50", "setting": "[3]", "result": "> 1000", "unit": "µM"},
      {"measurement": "IC50", "setting": "[4]", "result": "> 1000", "unit": "µM"},
      {"measurement": "IC50", "setting": "[5]", "result": "> 1000", "unit": "µM"}
    ]},
    {"smiles": "CCCCCCCCCC(=O)O[C@H]1[C@H](O)[C@@H](CO)O[C@H]1n1cc(C)c(=O)[nH]c1=O", "values": [
      {"measurement": "IC50", "setting": "[1]", "result": 872, "unit": "µM"},
      {"measurement": "IC50", "setting": "[2]", "result": "> 1000", "unit": "µM"},
      {"measurement": "IC50", "setting": "[3]", "result": 27, "unit": "µM"},
      {"measurement": "IC50", "setting": "[4]", "result": "> 1000", "unit": "µM"},
      {"measurement": "IC50", "setting": "[5]", "result": "> 1000", "unit": "µM"}
    ]},
    {"smiles": "COCC(=O)O[C@H]1[C@H](O)[C@@H](CO)O[C@H]1n1cc(/C=C/Br)c(=O)[nH]c1=O", "values": [
      {"measurement": "IC50", "setting": "[2]", "result": 84, "unit": "µM"},
      {"measurement": "IC50", "setting": "[3]", "result": 402, "unit": "µM"},
      {"measurement": "IC50", "setting": "[4]", "result": 35, "unit": "µM"},
      {"measurement": "IC50", "setting": "[5]", "result": "> 1000", "unit": "µM"}
    ]},
    {"smiles": "CCCCCCCCCCCC(=O)O[C@H]1[C@H](O)[C@@H](CO)O[C@H]1n1cc(C)c(=O)[nH]c1=O", "values": [
      {"measurement": "IC50", "setting": "[1]", "result": "> 1000", "unit": "µM"},
      {"measurement": "IC50", "setting": "[2]", "result": "> 1000", "unit": "µM"},
      {"measurement": "IC50", "setting": "[3]", "result": 28, "unit": "µM"},
      {"measurement": "IC50", "setting": "[4]", "result": "> 1000", "unit": "µM"},
      {"measurement": "IC50", "setting": "[5]", "result": "> 1000", "unit": "µM"}
    ]},
    {"smiles": "CCCCCCCCO[C@H]1[C@H](O)[C@@H](CO)O[C@H]1n1cc(C)c(=O)[nH]c1=O", "values": [
      {"measurement": "IC50", "setting": "[1]", "result": "> 1000", "unit": "µM"},
      {"measurement": "IC50", "setting": "[2]", "result": "> 1000", "unit": "µM"},
      {"measurement": "IC50", "setting": "[3]", "result": 120, "unit": "µM"},
      {"measurement": "IC50", "setting": "[4]", "result": "> 1000", "unit": "µM"},
      {"measurement": "IC50", "setting": "[5]", "result": "> 1000", "unit": "µM"}
    ]},
    {"smiles": "CCCCCCCCCC(=O)O[C@H]1[C@H](O)[C@@H](CO)O[C@H]1n1cc(/C=C/Br)c(=O)[nH]c1=O", "values": [
      {"measurement": "IC50", "setting": "[1]", "result": 163, "unit": "µM"},
      {"measurement": "IC50", "setting": "[2]", "result": "> 1000", "unit": "µM"},
      {"measurement": "IC50", "setting": "[3]", "result": 6.8, "unit": "µM"},
      {"measurement": "IC50", "setting": "[4]", "result": 845, "unit": "µM"},
      {"measurement": "IC50", "setting": "[5]", "result": "> 1000", "unit": "µM"}
    ]},
    {"smiles": "O=c1[nH]c(=O)n(C2O[C@H](CO)[C@@H](O)[C@@H]2O)cc1/C=C\\Br", "note": "(some centres not stated)", "values": [
      {"measurement": "IC50", "setting": "[1]", "result": 31.6, "unit": "µM"},
      {"measurement": "IC50", "setting": "[2]", "result": 4.3, "unit": "µM"},
      {"measurement": "IC50", "setting": "[3]", "result": 43, "unit": "µM"},
      {"measurement": "IC50", "setting": "[4]", "result": 3.3, "unit": "µM"},
      {"measurement": "IC50", "setting": "[5]", "result": "> 500", "unit": "µM"}
    ]},
    {"smiles": "Nc1ccn([C@@H]2O[C@H](CO)[C@@H](O)[C@@H]2O)c(=O)n1", "note": "[CYTARABINE]", "values": [
      {"measurement": "IC50", "setting": "[2]", "result": "> 1000", "unit": "µM"},
      {"measurement": "IC50", "setting": "[3]", "result": "> 1000", "unit": "µM"},
      {"measurement": "IC50", "setting": "[4]", "result": "> 1000", "unit": "µM"},
      {"measurement": "IC50", "setting": "[5]", "result": "> 1000", "unit": "µM"}
    ]}
  ]
}
